Assays:
Type in all cases: functional
SN12C = experiment: Growth inhibition of human SN12C cells assessed as cell growth incubated for 48 hrs by sulforhodamine B assay; parameters: concentration or dose not given beside the values
A498 = experiment: Growth inhibition of human A498 cells assessed as cell growth incubated for 48 hrs by sulforhodamine B assay; parameters: concentration or dose not given beside the values
Malme-3M = experiment: Growth inhibition of human MALME-3M cells assessed as cell growth incubated for 48 hrs by sulforhodamine B assay; parameters: scale not given: the % may be the effect or the level left
SNB-19 = experiment: Growth inhibition of human SNB19 cells assessed as cell growth incubated for 48 hrs by sulforhodamine B assay; parameters: concentration or dose not given beside the values
MDA-MB-435 = experiment: Growth inhibition of human MDA-MB-435 cells assessed as cell growth incubated for 48 hrs by sulforhodamine B assay; parameters: concentration or dose not given beside the values
HCC 2998 = experiment: Growth inhibition of human HCC2998 cells assessed as cell growth incubated for 48 hrs by sulforhodamine B assay; parameters: concentration or dose not given beside the values
HT-29 = experiment: Growth inhibition of human HT-29 cells assessed as cell growth incubated for 48 hrs by sulforhodamine B assay; parameters: concentration or dose not given beside the values
NCI-H23 = experiment: Growth inhibition of human NCI-H23 cells assessed as cell growth incubated for 48 hrs by sulforhodamine B assay; parameters: concentration or dose not given beside the values
COLO 205 = experiment: Growth inhibition of human COLO205 cells assessed as cell growth incubated for 48 hrs by sulforhodamine B assay; parameters: concentration or dose not given beside the values
UO-31 = experiment: Growth inhibition of human UO31 cells assessed as cell growth incubated for 48 hrs by sulforhodamine B assay; parameters: concentration or dose not given beside the values
HL-60(TB) = experiment: Growth inhibition of human HL-60(TB) cells assessed as cell growth incubated for 48 hrs by sulforhodamine B assay; parameters: concentration or dose not given beside the values
HOP-92 = experiment: Growth inhibition of human HOP92 cells assessed as cell growth incubated for 48 hrs by sulforhodamine B assay; parameters: concentration or dose not given beside the values
SK-MEL-28 = experiment: Growth inhibition of human SK-MEL-28 cells assessed as cell growth incubated for 48 hrs by sulforhodamine B assay; parameters: concentration or dose not given beside the values
SK-OV-3 = experiment: Growth inhibition of human SKOV3 cells assessed as cell growth incubated for 48 hrs by sulforhodamine B assay; parameters: concentration or dose not given beside the values
OVCAR-8 = experiment: Growth inhibition of human OVCAR8 cells assessed as cell growth incubated for 48 hrs by sulforhodamine B assay; parameters: concentration or dose not given beside the values
MCF7 = experiment: Growth inhibition of human MCF7 cells assessed as cell growth incubated for 48 hrs by sulforhodamine B assay; parameters: concentration or dose not given beside the values
SK-MEL-5 = experiment: Growth inhibition of human SK-MEL-5 cells assessed as cell growth incubated for 48 hrs by sulforhodamine B assay; parameters: concentration or dose not given beside the values
SW-620 = experiment: Growth inhibition of human SW620 cells assessed as cell growth incubated for 48 hrs by sulforhodamine B assay; parameters: concentration or dose not given beside the values
RXF 393 = experiment: Growth inhibition of human RXF393 cells assessed as cell growth incubated for 48 hrs by sulforhodamine B assay; parameters: concentration or dose not given beside the values
MDA-MB-231 = experiment: Growth inhibition of human MDA-MB-231 cells assessed as cell growth incubated for 48 hrs by sulforhodamine B assay; parameters: concentration or dose not given beside the values
LOX IMVI = experiment: Growth inhibition of human LOXIMVI cells assessed as cell growth incubated for 48 hrs by sulforhodamine B assay; parameters: concentration or dose not given beside the values
786-0 = experiment: Growth inhibition of human 786-0 cells assessed as cell growth incubated for 48 hrs by sulforhodamine B assay; parameters: concentration or dose not given beside the values
MOLT-4 = experiment: Growth inhibition of human MOLT4 cells assessed as cell growth incubated for 48 hrs by sulforhodamine B assay; parameters: concentration or dose not given beside the values
IGROV-1 = experiment: Growth inhibition of human IGROV1 cells assessed as cell growth incubated for 48 hrs by sulforhodamine B assay; parameters: scale not given: the % may be the effect or the level left
MDA-MB-468 = experiment: Growth inhibition of human MDA-MB-468 cells assessed as cell growth incubated for 48 hrs by sulforhodamine B assay; parameters: concentration or dose not given beside the values
SF-268 = experiment: Growth inhibition of human SF268 cells assessed as cell growth incubated for 48 hrs by sulforhodamine B assay; parameters: concentration or dose not given beside the values
UACC-257 = experiment: Growth inhibition of human UACC257 cells assessed as cell growth incubated for 48 hrs by sulforhodamine B assay; parameters: concentration or dose not given beside the values
NCI/ADR-RES = experiment: Growth inhibition of human NCI/ADR-RES cells assessed as cell growth incubated for 48 hrs by sulforhodamine B assay; parameters: concentration or dose not given beside the values
PC-3 = experiment: Growth inhibition of human PC3 cells assessed as cell growth incubated for 48 hrs by sulforhodamine B assay; parameters: concentration or dose not given beside the values
RPMI-8226 = experiment: Growth inhibition of human RPMI8226 cells assessed as cell growth incubated for 48 hrs by sulforhodamine B assay; parameters: concentration or dose not given beside the values
DU-145 = experiment: Growth inhibition of human DU145 cells assessed as cell growth incubated for 48 hrs by sulforhodamine B assay; parameters: concentration or dose not given beside the values
NCI-H226 = experiment: Growth inhibition of human NCI-H226 cells assessed as cell growth incubated for 48 hrs by sulforhodamine B assay; parameters: concentration or dose not given beside the values
CAKI-1 = experiment: Growth inhibition of human Caki1 cells assessed as cell growth incubated for 48 hrs by sulforhodamine B assay; parameters: concentration or dose not given beside the values
CCRF-CEM = experiment: Growth inhibition of human CCRF-CEM cells assessed as cell growth incubated for 48 hrs by sulforhodamine B assay; parameters: concentration or dose not given beside the values
M14 = experiment: Growth inhibition of human M14 cells assessed as cell growth incubated for 48 hrs by sulforhodamine B assay; parameters: concentration or dose not given beside the values
HOP-62 = experiment: Growth inhibition of human HOP62 cells assessed as cell growth incubated for 48 hrs by sulforhodamine B assay; parameters: concentration or dose not given beside the values
SR = experiment: Growth inhibition of human SR cells assessed as cell growth incubated for 48 hrs by sulforhodamine B assay; parameters: concentration or dose not given beside the values
NCI-H322M = experiment: Growth inhibition of human NCI-H322M cells assessed as cell growth incubated for 48 hrs by sulforhodamine B assay; parameters: scale not given: the % may be the effect or the level left
TK-10 = experiment: Growth inhibition of human TK10 cells assessed as cell growth incubated for 48 hrs by sulforhodamine B assay; parameters: concentration or dose not given beside the values
T47D = experiment: Growth inhibition of human T47D cells assessed as cell growth incubated for 48 hrs by sulforhodamine B assay; parameters: concentration or dose not given beside the values
OVCAR-4 = experiment: Growth inhibition of human OVCAR4 cells assessed as cell growth incubated for 48 hrs by sulforhodamine B assay; parameters: concentration or dose not given beside the values
HCT-116 = experiment: Growth inhibition of human HCT116 cells assessed as cell growth incubated for 48 hrs by sulforhodamine B assay; parameters: concentration or dose not given beside the values
SF-295 = experiment: Growth inhibition of human SF295 cells assessed as cell growth incubated for 48 hrs by sulforhodamine B assay; parameters: concentration or dose not given beside the values
KM12 = experiment: Growth inhibition of human KM12 cells assessed as cell growth incubated for 48 hrs by sulforhodamine B assay; parameters: concentration or dose not given beside the values
SNB-75 = experiment: Growth inhibition of human SNB75 cells assessed as cell growth incubated for 48 hrs by sulforhodamine B assay; parameters: concentration or dose not given beside the values
K562 = experiment: Growth inhibition of human K562 cells assessed as cell growth incubated for 48 hrs by sulforhodamine B assay; parameters: concentration or dose not given beside the values
BT-549 = experiment: Growth inhibition of human BT549 cells assessed as cell growth incubated for 48 hrs by sulforhodamine B assay; parameters: concentration or dose not given beside the values
A549 = experiment: Growth inhibition of human A549/ATCC cells assessed as cell growth incubated for 48 hrs by sulforhodamine B assay; parameters: concentration or dose not given beside the values
OVCAR-3 = experiment: Growth inhibition of human OVCAR3 cells assessed as cell growth incubated for 48 hrs by sulforhodamine B assay; parameters: concentration or dose not given beside the values
U-251 = experiment: Growth inhibition of human U251 cells assessed as cell growth incubated for 48 hrs by sulforhodamine B assay; parameters: concentration or dose not given beside the values
UACC-62 = experiment: Growth inhibition of human UACC62 cells assessed as cell growth incubated for 48 hrs by sulforhodamine B assay; parameters: concentration or dose not given beside the values
NCI-H522 = experiment: Growth inhibition of human NCI-H522 cells assessed as cell growth incubated for 48 hrs by sulforhodamine B assay; parameters: concentration or dose not given beside the values
NCI-H460 = experiment: Growth inhibition of human NCI-H460 cells assessed as cell growth incubated for 48 hrs by sulforhodamine B assay; parameters: concentration or dose not given beside the values
Hs-578T = experiment: Growth inhibition of human Hs 578T cells assessed as cell growth incubated for 48 hrs by sulforhodamine B assay; parameters: concentration or dose not given beside the values
SK-MEL-2 = experiment: Growth inhibition of human SK-MEL-2 cells assessed as cell growth incubated for 48 hrs by sulforhodamine B assay; parameters: concentration or dose not given beside the values

CC(C)(C)OC(=O)NCC1CN(C(=O)CCc2ccc3c(=O)c4sc5c(=O)c6ccccc6c(=O)c5c4c(=O)c3c2)C1
Activity (SN12C): -79.71%
Activity (A498): 35.61%
Activity (Malme-3M): -88.84%
Activity (SNB-19): -4.23%
Activity (MDA-MB-435): -97.59%
Activity (HCC 2998): -90.99%
Activity (HT-29): -57.09%
Activity (NCI-H23): -39.91%
Activity (COLO 205): -97.62%
Activity (UO-31): -81.64%
Activity (HL-60(TB)): -44.47%
Activity (HOP-92): -14.16%
Activity (SK-MEL-28): -21.85%
Activity (SK-OV-3): -34.85%
Activity (OVCAR-8): -55.88%
Activity (MCF7): -63.33%
Activity (SK-MEL-5): -99.11%
Activity (SW-620): -23.01%
Activity (RXF 393): -48.97%
Activity (MDA-MB-231): -12.92%
Activity (LOX IMVI): -69.24%
Activity (786-0): -48.69%
Activity (MOLT-4): -47.44%
Activity (IGROV-1): -62.41%
Activity (MDA-MB-468): -50.83%
Activity (SF-268): -39.06%
Activity (UACC-257): -95.5%
Activity (NCI/ADR-RES): -12.16%
Activity (PC-3): 4.68%
Activity (RPMI-8226): -36.74%
Activity (DU-145): -95.53%
Activity (NCI-H226): -51.46%
Activity (CAKI-1): 0.12%
Activity (CCRF-CEM): -45.34%
Activity (M14): -97.99%
Activity (HOP-62): -74.88%
Activity (SR): -5.83%
Activity (NCI-H322M): -94.65%
Activity (TK-10): -8.18%
Activity (T47D): -33.26%
Activity (OVCAR-4): -90.58%
Activity (HCT-116): -89.29%
Activity (SF-295): -95.8%
Activity (KM12): -27.78%
Activity (SNB-75): -83.64%
Activity (K562): -13.04%
Activity (BT-549): -94.11%
Activity (A549): -66.1%
Activity (OVCAR-3): -33.51%
Activity (U-251): -70.04%
Activity (UACC-62): -68.32%
Activity (NCI-H522): -42.91%
Activity (NCI-H460): -45.51%
Activity (Hs-578T): -20.36%
Activity (SK-MEL-2): -50.15%

From ChEMBL document CHEMBL4420075, “Seriniquinones, melanoma-specific anticancer agents” (2016)
